{"source": "ChEMBL document CHEMBL3885861", "about": "“Open TG-GATES”", "species": "Rattus norvegicus", "assay": "Open TG-GATES - Regimen: Daily Repeat", "type": "toxicity, organism-based, Sprague-Dawley", "set-up": "regimen Daily Repeat, gender Male, age 6 weeks", "conditions": "in vivo, po, route gavage; for LDH / Na / RALB / TBIL / TC / TG / TP / gamma-GTP / ALP / ALT / AST / BUN / CRE / DBIL / GLC / IP / K: tissue Plasma; for Bas / Eos / Fbg / Lym / MCH / MCHC / MCV / Mono / Neu / PT / RBC / Ret / WBC / Plat: tissue Blood; for KIDNEY_L / KIDNEY_R / KIDNEY_TOTAL: tissue Kidney", "key": {"[1]": {"conditions": "10 mg/kg, […], dose level Middle, time 14 day"}, "[2]": {"conditions": "10 mg/kg, […], dose level Middle, time 28 day"}, "[3]": {"conditions": "30 mg/kg, 72 h, dose level High, time 3 day"}, "[4]": {"conditions": "30 mg/kg, […], dose level High, time 7 day"}, "[5]": {"conditions": "30 mg/kg, […], dose level High, time 14 day"}}, "data": [{"smiles": "Cc1cnc(NC(=O)C2=C(O)c3ccccc3S(=O)(=O)N2C)s1", "note": "[MELOXICAM]", "values": [{"measurement": "LDH", "setting": "[1]", "result": 185.4, "unit": "IU/L"}, {"measurement": "Na", "setting": "[1]", "result": 142.6, "unit": "meq/L"}, {"measurement": "RALB", "setting": "[1]", "result": 3.5, "unit": "g/dL"}, {"measurement": "TBIL", "setting": "[1]", "result": 0.2, "unit": "mg/dL"}, {"measurement": "TC", "setting": "[1]", "result": 67.2, "unit": "mg/dL"}, {"measurement": "TG", "setting": "[1]", "result": 128.6, "unit": "mg/dL"}, {"measurement": "TP", "setting": "[1]", "result": 5.9, "unit": "g/dL"}, {"measurement": "gamma-GTP", "setting": "[1]", "result": 1, "unit": "IU/L"}, {"measurement": "ALP", "setting": "[2]", "result": 643.2, "unit": "IU/L"}, {"measurement": "ALT", "setting": "[2]", "result": 33.2, "unit": "IU/L"}, {"measurement": "AST", "setting": "[2]", "result": 66, "unit": "IU/L"}, {"measurement": "BUN", "setting": "[2]", "result": 17, "unit": "mg/dL"}, {"measurement": "CRE", "setting": "[2]", "result": 0.5, "unit": "mg/dL"}, {"measurement": "DBIL", "setting": "[2]", "result": 0.096, "unit": "mg/dL"}, {"measurement": "GLC", "setting": "[2]", "result": 244, "unit": "mg/dL"}, {"measurement": "IP", "setting": "[2]", "result": 7.3, "unit": "mg/dL"}, {"measurement": "K", "setting": "[2]", "result": 3.9, "unit": "meq/L"}, {"measurement": "LDH", "setting": "[2]", "result": 176.8, "unit": "IU/L"}, {"measurement": "Na", "setting": "[2]", "result": 141.8, "unit": "meq/L"}, {"measurement": "RALB", "setting": "[2]", "result": 3.2, "unit": "g/dL"}, {"measurement": "TBIL", "setting": "[2]", "result": 0.2, "unit": "mg/dL"}, {"measurement": "TC", "setting": "[2]", "result": 65.2, "unit": "mg/dL"}, {"measurement": "TG", "setting": "[2]", "result": 121.4, "unit": "mg/dL"}, {"measurement": "TP", "setting": "[2]", "result": 5.7, "unit": "g/dL"}, {"measurement": "gamma-GTP", "setting": "[2]", "result": 0.8, "unit": "IU/L"}, {"measurement": "TERMINAL_BW", "setting": "[3]", "result": 230.2, "unit": "g"}, {"measurement": "Bas", "setting": "[3]", "result": 0.6, "unit": "%"}, {"measurement": "Eos", "setting": "[3]", "result": 0.4, "unit": "%"}, {"measurement": "Fbg", "setting": "[3]", "result": 378.4, "unit": "mg/dL"}, {"measurement": "Lym", "setting": "[3]", "result": 66.6, "unit": "%"}, {"measurement": "MCH", "setting": "[3]", "result": 21.2, "unit": "pg"}, {"measurement": "MCHC", "setting": "[3]", "result": 34.1, "unit": "%"}, {"measurement": "MCV", "setting": "[3]", "result": 61.9, "unit": "fL"}, {"measurement": "Mono", "setting": "[3]", "result": 4.4, "unit": "%"}, {"measurement": "Neu", "setting": "[3]", "result": 25.6, "unit": "%"}, {"measurement": "PT", "setting": "[3]", "result": 11.6, "unit": "s"}, {"measurement": "RBC", "setting": "[3]", "result": 512.4, "unit": "x10_4/ul"}, {"measurement": "Ret", "setting": "[3]", "result": 7.1, "unit": "%"}, {"measurement": "WBC", "setting": "[3]", "result": 150.3, "unit": "x10_2/uL"}, {"measurement": "KIDNEY_L", "setting": "[3]", "result": 1.2, "unit": "g"}, {"measurement": "KIDNEY_R", "setting": "[3]", "result": 1.2, "unit": "g"}, {"measurement": "KIDNEY_TOTAL", "setting": "[3]", "result": 2.5, "unit": "g"}, {"measurement": "ALP", "setting": "[3]", "result": 536, "unit": "IU/L"}, {"measurement": "ALT", "setting": "[3]", "result": 26, "unit": "IU/L"}, {"measurement": "AST", "setting": "[3]", "result": 52.4, "unit": "IU/L"}, {"measurement": "BUN", "setting": "[3]", "result": 17, "unit": "mg/dL"}, {"measurement": "CRE", "setting": "[3]", "result": 0.4, "unit": "mg/dL"}, {"measurement": "DBIL", "setting": "[3]", "result": 0.072, "unit": "mg/dL"}, {"measurement": "IP", "setting": "[3]", "result": 8.2, "unit": "mg/dL"}, {"measurement": "K", "setting": "[3]", "result": 4.1, "unit": "meq/L"}, {"measurement": "LDH", "setting": "[3]", "result": 165.8, "unit": "IU/L"}, {"measurement": "Na", "setting": "[3]", "result": 140.8, "unit": "meq/L"}, {"measurement": "RALB", "setting": "[3]", "result": 2.4, "unit": "g/dL"}, {"measurement": "TBIL", "setting": "[3]", "result": 0.1, "unit": "mg/dL"}, {"measurement": "TC", "setting": "[3]", "result": 71.6, "unit": "mg/dL"}, {"measurement": "TG", "setting": "[3]", "result": 110.4, "unit": "mg/dL"}, {"measurement": "TP", "setting": "[3]", "result": 4.9, "unit": "g/dL"}, {"measurement": "gamma-GTP", "setting": "[3]", "result": 1.2, "unit": "IU/L"}, {"measurement": "TERMINAL_BW", "setting": "[4]", "result": 231.5, "unit": "g"}, {"measurement": "TERMINAL_BW", "setting": "[5]", "result": 312.2, "unit": "g"}, {"measurement": "Bas", "setting": "[4]", "result": 0.6, "unit": "%"}, {"measurement": "Eos", "setting": "[4]", "result": 0.6, "unit": "%"}, {"measurement": "Fbg", "setting": "[4]", "result": 379.2, "unit": "mg/dL"}, {"measurement": "Lym", "setting": "[4]", "result": 55.6, "unit": "%"}, {"measurement": "MCH", "setting": "[4]", "result": 20.6, "unit": "pg"}, {"measurement": "MCHC", "setting": "[4]", "result": 32.5, "unit": "%"}, {"measurement": "MCV", "setting": "[4]", "result": 63.4, "unit": "fL"}, {"measurement": "Mono", "setting": "[4]", "result": 4.8, "unit": "%"}, {"measurement": "Neu", "setting": "[4]", "result": 36.6, "unit": "%"}, {"measurement": "PT", "setting": "[4]", "result": 12, "unit": "s"}, {"measurement": "Plat", "setting": "[4]", "result": 251.1, "unit": "x10_4/uL"}, {"measurement": "RBC", "setting": "[4]", "result": 387, "unit": "x10_4/ul"}, {"measurement": "Ret", "setting": "[4]", "result": 17.2, "unit": "%"}, {"measurement": "WBC", "setting": "[4]", "result": 145.2, "unit": "x10_2/uL"}, {"measurement": "Bas", "setting": "[5]", "result": 1, "unit": "%"}, {"measurement": "Eos", "setting": "[5]", "result": 0, "unit": "%"}, {"measurement": "Fbg", "setting": "[5]", "result": 283.5, "unit": "mg/dL"}, {"measurement": "Lym", "setting": "[5]", "result": 62, "unit": "%"}, {"measurement": "MCH", "setting": "[5]", "result": 20.8, "unit": "pg"}, {"measurement": "MCHC", "setting": "[5]", "result": 33, "unit": "%"}, {"measurement": "MCV", "setting": "[5]", "result": 63, "unit": "fL"}, {"measurement": "Mono", "setting": "[5]", "result": 4, "unit": "%"}, {"measurement": "Neu", "setting": "[5]", "result": 32, "unit": "%"}, {"measurement": "PT", "setting": "[5]", "result": 11.5, "unit": "s"}, {"measurement": "Plat", "setting": "[5]", "result": 174, "unit": "x10_4/uL"}, {"measurement": "RBC", "setting": "[5]", "result": 636.5, "unit": "x10_4/ul"}, {"measurement": "Ret", "setting": "[5]", "result": 8.5, "unit": "%"}, {"measurement": "WBC", "setting": "[5]", "result": 190.7, "unit": "x10_2/uL"}, {"measurement": "KIDNEY_L", "setting": "[4]", "result": 1.1, "unit": "g"}, {"measurement": "KIDNEY_R", "setting": "[4]", "result": 1.1, "unit": "g"}, {"measurement": "KIDNEY_TOTAL", "setting": "[4]", "result": 2.2, "unit": "g"}, {"measurement": "KIDNEY_L", "setting": "[5]", "result": 1.5, "unit": "g"}, {"measurement": "KIDNEY_R", "setting": "[5]", "result": 1.5, "unit": "g"}, {"measurement": "KIDNEY_TOTAL", "setting": "[5]", "result": 3, "unit": "g"}, {"measurement": "ALP", "setting": "[4]", "result": 1681.8, "unit": "IU/L"}, {"measurement": "ALT", "setting": "[4]", "result": 18, "unit": "IU/L"}, {"measurement": "AST", "setting": "[4]", "result": 74, "unit": "IU/L"}, {"measurement": "BUN", "setting": "[4]", "result": 53.4, "unit": "mg/dL"}, {"measurement": "CRE", "setting": "[4]", "result": 0.5, "unit": "mg/dL"}, {"measurement": "DBIL", "setting": "[4]", "result": 0.1, "unit": "mg/dL"}, {"measurement": "GLC", "setting": "[4]", "result": 153, "unit": "mg/dL"}, {"measurement": "IP", "setting": "[4]", "result": 9.7, "unit": "mg/dL"}, {"measurement": "K", "setting": "[4]", "result": 5.8, "unit": "meq/L"}, {"measurement": "LDH", "setting": "[4]", "result": 221.2, "unit": "IU/L"}, {"measurement": "Na", "setting": "[4]", "result": 136, "unit": "meq/L"}, {"measurement": "RALB", "setting": "[4]", "result": 2.1, "unit": "g/dL"}, {"measurement": "TBIL", "setting": "[4]", "result": 0.2, "unit": "mg/dL"}, {"measurement": "TC", "setting": "[4]", "result": 66, "unit": "mg/dL"}, {"measurement": "TG", "setting": "[4]", "result": 111.4, "unit": "mg/dL"}, {"measurement": "TP", "setting": "[4]", "result": 5.1, "unit": "g/dL"}, {"measurement": "gamma-GTP", "setting": "[4]", "result": 7.4, "unit": "IU/L"}, {"measurement": "ALP", "setting": "[5]", "result": 580.5, "unit": "IU/L"}, {"measurement": "ALT", "setting": "[5]", "result": 32.5, "unit": "IU/L"}, {"measurement": "AST", "setting": "[5]", "result": 67, "unit": "IU/L"}, {"measurement": "BUN", "setting": "[5]", "result": 16, "unit": "mg/dL"}, {"measurement": "CRE", "setting": "[5]", "result": 0.4, "unit": "mg/dL"}, {"measurement": "DBIL", "setting": "[5]", "result": 0.095, "unit": "mg/dL"}, {"measurement": "IP", "setting": "[5]", "result": 7.5, "unit": "mg/dL"}, {"measurement": "K", "setting": "[5]", "result": 4.2, "unit": "meq/L"}, {"measurement": "LDH", "setting": "[5]", "result": 145.5, "unit": "IU/L"}, {"measurement": "Na", "setting": "[5]", "result": 142, "unit": "meq/L"}, {"measurement": "RALB", "setting": "[5]", "result": 3, "unit": "g/dL"}, {"measurement": "TBIL", "setting": "[5]", "result": 0.2, "unit": "mg/dL"}, {"measurement": "TC", "setting": "[5]", "result": 70, "unit": "mg/dL"}, {"measurement": "TG", "setting": "[5]", "result": 139.5, "unit": "mg/dL"}, {"measurement": "TP", "setting": "[5]", "result": 5.5, "unit": "g/dL"}, {"measurement": "gamma-GTP", "setting": "[5]", "result": 1, "unit": "IU/L"}]}]}
